Results taken from PubChem BioAssay AID2060607 (Molecular Pharmacology Branch, DTP, NCI, 2025).

Test system: 876862-298-R-J1-PDC complex spheroids, viability % test/control
Experiment: Anticancer human tumor 876862-298-R-J1-PDC patient-derived endometrial carcinoma cell line growth inhibition [CLK]
Conditions: for IC50: curve of first compound; for viability, T/C: stronger effect = lower value; active means viability on the fitted dose curve at most 10% of control; inactive means the rest
Description: A high-throughput screen of multi-cell type tumor spheroids was designed to identify active combinations of […] and targeted small molecules. Complex spheroids include a stromal component modeled by human endothelial cells (HUVEC) and fibroblasts modeled by human mesenchymal stem cells (MSCs). The concentration ranges selected for each drug and investigational agent were based upon clinically achievable concentrations if the clinical Cmax of the agent was known.
Compounds. The drugs and investigational agents: cirtuvivint (SM08502; NSC835563), CC-671 (NSC850746), vemurafenib (NSC761431), tapotoclax (NSC804041), sotorasib (NSC818433), adagrasib (NSC831453), MRTX-1133 (NSC836407), BAY2416964 (NSC825713), copanlisib (NSC816437), inavolisib (NSC800729), abemaciclib (NSC768073), osimertinib (NSC779217), entinostat (NSC756642), eltanexor (KPT-8602, NSC794443), venetoclax (NSC766270), ceralasertib (NSC777638), bortezomib (NSC756655), olaparib (NSC753686), talazoparib (NSC767125), alisertib (NSC759677), peposertib (NSC802822), gemcitabine (NSC613327), 5-fluorouracil (NSC19893), SN-38 (NSC673596), oxaliplatin (NSC266046), paclitaxel (NSC125973), and doxorubicin (NSC123127), were obtained from the National Cancer Institute (NCI) Developmental Therapeutics Program Chemical Repository. The FDA-approved anticancer drug set is available from the Developmental Therapeutics Program at https://dtp.cancer.gov/organization/dscb/obtaining/available plates.htm. […] The stock solutions were prepared in dimethyl sulfoxide (DMSO, Sigma-Aldrich, St. Louis, MO, cat. D2650), except for the platinum complexes which were prepared in saline (Quality Biological, Gaithersburg, MD, cat. 114-055-101), at 800-fold the tested concentration and stored at -70 degrees C prior to their use. All drugs and investigational agents were tested over a range starting from a high concentration at or near the clinical Cmax and decreasing in half-log increments. If the clinical Cmax for an agent had not been determined, the highest concentration tested was 10 microM.
Cell Culture. All cells were maintained in an incubator at 37 degrees C and 5% CO2 with 95% humidity. The PDC lines were cultured according to standard operating procedures established by the NCI PDMR. Briefly, all PDCs were thawed and cultured in Matrigel-coated flasks prepared with a working solution of 1X Ham's F-12 nutrient mix, without supplementation (Invitrogen, Waltham, MA, cat. 11765054), 100 U/mL penicillin-streptomycin (Invitrogen, cat. 15140122), and 2.5% Matrigel (Corning Inc., Corning, NY, cat. 354248) for the first three passages. The 947758-054-R-J2-PDC line was cultured in 6B/Colon 1A media, which includes advanced DMEM/F-12 (Thermo Fisher Scientific, cat. 12634028), 10 mM HEPES (Thermo Fisher Scientific, cat. 15630080), 1X GlutaMAX supplement (Thermo Fisher Scientific, cat. 35050061), 0.1 mg/mL primocin (InvivoGen, cat. ant-pm-2), 10% defined fetal bovine serum, heat inactivated (HyClone Laboratories Inc., cat. SH30070.03HI), 1.25 mM N-Acetyl-L-cysteine (Sigma-Aldrich, cat. A9165), 10 mM nicotinamide (Sigma-Aldrich, cat. N0636), 1X B-27 supplement (Thermo Fisher Scientific, cat. 17504044), 1X N-2 supplement (Thermo Fisher Scientific, cat. 17502048), and 10 microM Y-27632 dihydrochloride (Tocris Bioscience, cat. 1254). The 876862-298-R-J1-PDC was cultured in 6E media, which includes all 6B/Colon 1A media components plus 50% L-WRN conditioned media (ATCC, cat. CRL-3276), 50 ng/mL recombinant human EGF recombinant protein (hEGF; Thermo Fisher Scientific, cat. PHG0311), 10 ng/mL recombinant human fibroblast growth factor 10 (hGFG-10; PeproTech, cat. 100-26), 1 ng/mL recombinant human fibroblast growth factor 2 (hFGF-2; PeproTech, cat. 100-18B), and 1 µM prostaglandin E2 (PGE2; Tocris, cat. 2296). The 227483-062-R1-J1-PDC line was cultured in Panc media, containing all 6E components except hFGF-2, with the addition of 500 nM SB-431542 (Selleckchem, cat. S1067) and 10 nM gastrin (Tocris, cat. 3006). […]

[1] = second compound 0.0316 µM, first compound 0.0316 µM
[2] = second compound 0.0316 µM, first compound 0.1 µM
[3] = second compound 0.0316 µM, first compound 0.316 µM
[4] = second compound 0.0316 µM, first compound 1 µM
[5] = second compound 0.0316 µM, first compound 3.16 µM
[6] = second compound 0.0316 µM, first compound 10 µM
[7] = second compound 0.1 µM, first compound 0.0316 µM
[8] = second compound 0.1 µM, first compound 0.1 µM
[9] = second compound 0.1 µM, first compound 0.316 µM
[10] = second compound 0.1 µM, first compound 1 µM
[11] = second compound 0.1 µM, first compound 3.16 µM
[12] = second compound 0.1 µM, first compound 10 µM
[13] = second compound 0.316 µM, first compound 0.0316 µM
[14] = second compound 0.316 µM, first compound 0.1 µM
[15] = second compound 0.316 µM, first compound 0.316 µM
[16] = second compound 0.316 µM, first compound 1 µM
[17] = second compound 0.316 µM, first compound 3.16 µM
[18] = second compound 0.316 µM, first compound 10 µM
[19] = second compound 1 µM, first compound 0.0316 µM
[20] = second compound 1 µM, first compound 0.1 µM
[21] = second compound 1 µM, first compound 0.316 µM
[22] = second compound 1 µM, first compound 1 µM
[23] = second compound 1 µM, first compound 3.16 µM
[24] = second compound 1 µM, first compound 10 µM
[25] = second compound 3.16 µM, first compound 0.0316 µM
[26] = second compound 3.16 µM, first compound 0.1 µM
[27] = second compound 3.16 µM, first compound 0.316 µM
[28] = second compound 3.16 µM, first compound 1 µM
[29] = second compound 3.16 µM, first compound 3.16 µM
[30] = second compound 3.16 µM, first compound 10 µM
[31] = second compound 10 µM, first compound 0.0316 µM
[32] = second compound 10 µM, first compound 0.1 µM
[33] = second compound 10 µM, first compound 0.316 µM
[34] = second compound 10 µM, first compound 1 µM
[35] = second compound 10 µM, first compound 3.16 µM
[36] = second compound 10 µM, first compound 10 µM
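Further: spheroids exposed to drugs for 7 days before readout.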
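Wherever viability, T/C is given: 100% = DMSO vehicle control wells.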

CCCS(=O)(=O)Nc1ccc(F)c(C(=O)c2c[nH]c3ncc(-c4ccc(Cl)cc4)cc23)c1F + CN1CCN(c2cc(C(=O)Nc3cc4cc(-c5cnn(C)c5)ccc4cn3)ccn2)CC1
974 nM: IC50 (second compound 0.1 µM)
< 31.6 nM: IC50 (second compound 0.316 µM) | IC50 (second compound 1 µM) | IC50 (second compound 3.16 µM) | IC50 (second compound 10 µM)
active: viability, T/C [13] 4.72% | viability, T/C [14] 3.82% | viability, T/C [15] 5.6% | viability, T/C [16] 5.09% | viability, T/C [17] 5.93% | viability, T/C [18] 3.83% | viability, T/C [19] 0.82% | viability, T/C [20] 1.88% | viability, T/C [21] 1.54% | viability, T/C [22] 2.17% | viability, T/C [23] 3.28% | viability, T/C [24] 1.25% | viability, T/C [25] 1.32% | viability, T/C [26] 2.22% | viability, T/C [27] 9.57% | viability, T/C [28] 1.58% | viability, T/C [29] 2.88% | viability, T/C [30] 2.88% | viability, T/C [31] 1.06% | viability, T/C [32] 1.12% | viability, T/C [33] 1.23% | viability, T/C [34] 10.9% | viability, T/C [35] 7.9% | viability, T/C [36] 2.22%
6760 nM: IC50 (second compound 0.0316 µM)
inactive: viability, T/C [1] 103% | viability, T/C [2] 93.4% | viability, T/C [3] 89.2% | viability, T/C [4] 101% | viability, T/C [5] 77.1% | viability, T/C [6] 36.1% | viability, T/C [7] 63.4% | viability, T/C [8] 51.6% | viability, T/C [9] 53.1% | viability, T/C [10] 50.7% | viability, T/C [11] 42.2% | viability, T/C [12] 22.5%

COC1C=CCC(C)C(C)S(=O)(=O)NC(=O)c2ccc3c(c2)N(CC2CCC21)CC1(CCCc2cc(Cl)ccc21)CO3 (centres undefined) + CN1CCN(c2cc(C(=O)Nc3cc4cc(-c5cnn(C)c5)ccc4cn3)ccn2)CC1
212 nM: IC50 (second compound 0.1 µM)
inactive: viability, T/C [1] 93.9% | viability, T/C [2] 96.6% | viability, T/C [3] 97.6% | viability, T/C [4] 96.3% | viability, T/C [5] 96.7% | viability, T/C [6] 33.5% | viability, T/C [7] 56.9% | viability, T/C [8] 51.1% | viability, T/C [9] 47.6% | viability, T/C [10] 39% | viability, T/C [11] 38.6% | viability, T/C [12] 18.8%
active: viability, T/C [13] 4.28% | viability, T/C [14] 3.17% | viability, T/C [15] 2.26% | viability, T/C [16] 1.91% | viability, T/C [17] 1.34% | viability, T/C [18] 0.56% | viability, T/C [19] 0.93% | viability, T/C [20] 0.64% | viability, T/C [21] 25.5% | viability, T/C [22] 0.78% | viability, T/C [23] 25.2% | viability, T/C [24] 2.2% | viability, T/C [25] 1.34% | viability, T/C [26] 1.14% | viability, T/C [27] 1.59% | viability, T/C [28] 1.26% | viability, T/C [29] 1.14% | viability, T/C [30] 0.26% | viability, T/C [31] 1.69% | viability, T/C [32] 1.52% | viability, T/C [33] 2.33% | viability, T/C [34] 26.3% | viability, T/C [35] 1.84% | viability, T/C [36] 1.78%
< 31.6 nM: IC50 (second compound 0.316 µM) | IC50 (second compound 1 µM) | IC50 (second compound 3.16 µM) | IC50 (second compound 10 µM)
7390 nM: IC50 (second compound 0.0316 µM)
